Experimental data from patent US20010036944A1, “Certain benzothiazine dioxide endothelin antagonists and processes for their preparation” (priority 1997, published 2001).

Assays:
[1] = target: T1, recombinant human ETAR (HETA) (Homo sapiens, UniProt P25101); assay: Radioligand binding, [125I]ET-1 to membranes of Ltk- cells expressing recombinant human ETAR (HETA); conditions: [125I]ET-1 binding, human ETA, Ltk- cell membranes; read-out: HETA (IC50)
T1 construct: expressed in transfected cells; host or cells: Ltk- cells (membrane preparation)
T1 sequence (P25101 21-427): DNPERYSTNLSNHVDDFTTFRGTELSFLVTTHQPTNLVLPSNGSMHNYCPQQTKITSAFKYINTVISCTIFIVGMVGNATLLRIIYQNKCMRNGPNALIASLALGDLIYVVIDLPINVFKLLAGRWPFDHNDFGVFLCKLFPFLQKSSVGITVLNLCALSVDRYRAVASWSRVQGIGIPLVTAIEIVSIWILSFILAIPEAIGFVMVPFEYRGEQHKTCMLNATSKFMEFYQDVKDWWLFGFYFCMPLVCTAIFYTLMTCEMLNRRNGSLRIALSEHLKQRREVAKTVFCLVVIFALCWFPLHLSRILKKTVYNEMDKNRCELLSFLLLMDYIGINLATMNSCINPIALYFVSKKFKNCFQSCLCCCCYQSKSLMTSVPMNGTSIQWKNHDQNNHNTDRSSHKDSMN
Description: (§1) The following cultured cells were used in binding experiments: Ltk-cells expressing recombinant human ETAR (HETA), and CHOKI cells expressing recombinant human ETBR (HETB).
(§2) Membranes were prepared from cultured cells by lysing cells in cold lysis buffer (5 mM HEPES, 2 mM EDTA, pH 7.4) and homogenizing with a Dounce “A” homogenizer. The homogenate was centrifuged at 30,000×g for 20 minutes at […]. Membrane pellets were suspended in cold buffer containing 20 mM Tris, 2 mM EDTA, 200 μM Pefabloc, 10 μM phosphoramidon, 10 μM leupeptin, 1 μM pepstatin at pH 7.4 and frozen at […] until use. Membranes were thawed and homogenized with a Brinkmann Polytron then diluted in tissue buffer containing 20 mM Tris, 2 mM EDTA, 200 μM Pefabloc, and 100 μM bacitracin (pH 7.4). Radioligand and competing ligands were prepared in binding buffer containing 20 mM Tris, 2 mM EDTA, and 0.1% BSA.
(§3) The assay was terminated by filtration over Whatman GF/B filters which were presoaked with 50 mM Tris, pH 7.4 containing 0.2% BSA and 100 μM bacitracin. Nonspecific binding was defined as binding in the presence of 100 nM ET-1.

[2] = target: T2, recombinant human ETBR (HETB) (Homo sapiens, UniProt P24530); assay: Radioligand binding, [125I]ET-1 to membranes of CHOKI cells expressing recombinant human ETBR (HETB); conditions: [125I]ET-1 binding, human ETB, CHOKI cell membranes
T2 construct: expressed in transfected cells; host or cells: CHOKI (CHO-K1) cells (membrane preparation)
T2 sequence (P24530 27-442): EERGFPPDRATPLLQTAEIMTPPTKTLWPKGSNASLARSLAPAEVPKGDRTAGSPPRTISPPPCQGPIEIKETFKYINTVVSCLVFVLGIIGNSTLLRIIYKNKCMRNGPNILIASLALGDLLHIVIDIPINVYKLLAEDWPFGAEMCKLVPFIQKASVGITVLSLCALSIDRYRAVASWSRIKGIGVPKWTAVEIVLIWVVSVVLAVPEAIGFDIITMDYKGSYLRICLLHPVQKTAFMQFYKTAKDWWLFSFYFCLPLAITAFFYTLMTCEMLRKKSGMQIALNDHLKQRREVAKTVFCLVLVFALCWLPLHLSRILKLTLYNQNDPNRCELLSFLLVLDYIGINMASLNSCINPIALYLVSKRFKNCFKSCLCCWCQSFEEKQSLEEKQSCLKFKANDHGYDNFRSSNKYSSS
Description: as §1, §2, §3

Compound	IC50 [1] [µM]	IC50 [2] [µM]
COc1cc(C2=C(C(=O)O)N(c3ccccc3Cl)S(=O)(=O)c3ccccc32)cc2c1OCO2 [Example 4, 2-(2-Chloro-phenyl)-4-(7-methoxy-benzo[1,3]dioxol-5-yl)-1,1-dioxo-1,2-dihydro-1λ^6-benzo[e][1,2]-thiazine-3-carboxylic acid]	0.003	5.6
COc1cc(C2=C(C(=O)O)N(c3ccccc3Cc3ccccc3)S(=O)(=O)c3ccccc32)cc2c1OCO2 [Example 5, 2-(2-Benzylphenyl)4-(7-methoxy-benzo[1,3]dioxo-5-yl)-1,1-dioxo-1,2-dihydro-1λ^6-benzo[e][1,2]thiazine-3-carboxylic acid]	0.004	2
CCc1ccccc1N1C(C(=O)O)=C(c2ccc3c(c2)OCO3)c2ccccc2S1(=O)=O [Example 13, 4-Benzo [1,3]dioxol-5-yl-2-(2ethyl-phenyl)-1,1-dioxo-1,2-dihydro-1λ^6-benzo[e][1,2]thiazine-3-carboxylic acid]	0.023	> 2.5
CC(C)c1ccccc1N1C(C(=O)O)=C(c2ccc3c(c2)OCO3)c2ccccc2S1(=O)=O [Example 15, 4-Benzo[1,3]dioxol-5-yl-2-(2isopropylphenyl)-1,1-dioxo 1,2-dihydro 1λ^6-benzo[e][1,2]thiazine-3-carboxylic acid]	0.09	11
CCCCc1ccccc1N1C(C(=O)O)=C(c2ccc3c(c2)OCO3)c2ccccc2S1(=O)=O [Example 16, 4-Benzo[1,3]dioxol-5-yl-2-(2butylphenyl)-1,1-dioxo-1,2-dihydro-1λ^6-benzo[e][1,2]thiazine-3-carboxylic acid]	0.026	> 2.5
O=C(O)C1=C(c2ccc3c(c2)OCO3)c2ccccc2S(=O)(=O)N1c1ccc(Cl)cc1Cl [Example 22]	0.05	13
Cc1cccc(C)c1N1C(C(=O)O)=C(c2ccc3c(c2)OCO3)c2ccccc2S1(=O)=O [Example 26, 4-Benzo[1,3]dioxol-5-yl-2-(2,6dimethyl-phenyl)-1,1-dioxo-1,2dihydro-1λ^6-benzo[e][1,2]thiazine-3-carboxylic acid]	0.017	> 25

The remaining compounds from weak to strong by IC50 [1], led by results:

IC50 [1] [µM]	IC50 [2] [µM]	Compound
0.11	> 25	O=C(O)C1=C(c2ccc3c(c2)OCO3)c2ccccc2S(=O)(=O)N1c1ccccc1F [Example 19, 4-Benzo-[1,3]dioxol-5-yl-2-(2-fluorohenyl)-1,1-dioxo-1,2dihydro-1λ^6-benzo[e]rl[2]thiazine-3-carboxylic acid]
0.095	> 2.5	4-(6-Methoxybenzo[1,3]dioxol-5-yl)-1,1-dioxo-2-(2-trifluoro-methyl-phenyl)-1,2-dihydro-1λ^6-benzo[e]r [1,2]thiazine-3-carboxylic acid [Example 30]
0.03	13	O=C(O)C1=C(c2ccc3c(c2)OCO3)c2ccccc2S(=O)(=O)N1c1cccc(Cl)c1Cl [Example 21, 4-Benzo-[1,3]dioxol-5-yl-2-(2,3-dichlorophenyl)1,1-dioxo-1,2dihydro1λ^6-benzo [e][1,2]thiazine-3-carboxylic acid]
0.03	17	Cc1c(Cl)cccc1N1C(C(=O)O)=C(c2ccc3c(c2)OCO3)c2ccccc2S1(=O)=O [Example 24]
0.021	6.2	COc1ccc(N2C(C(=O)O)=C(c3ccc4c(c3)OCO4)c3ccccc3S2(=O)=O)c(Cl)c1 [Example 23, 4-Benzo[1,3]dioxol-5-yl-2-(2-chloro-4-methoxyphenyl)-1,1-dioxo-1,2-dihydro-1λ^6-benzo[e][1,2]thiazine-3-carboxylic acid]
0.003	> 2.5	COc1cc(OC)cc(C2=C(C(=O)O)N(c3ccccc3Br)S(=O)(=O)c3ccccc32)c1 [Example 3, 2-(2-Bromophenyl)-4-(3,5-dimethoxy-phenyl)-1,1-dioxo-1,2-dihydro-1 λ^6-benzo[e][1,2]thiazine-3-carboxylic acid]
